This passage reports MIC and dose excreted results from patent US4487768A, “Cephem compounds” (Fujisawa Pharmaceutical Co., Ltd., priority 1982, dated 1984).

One data set relates to Proteus vulgaris 2. Briefly: Minimal inhibitory concentration, two-fold agar-plate dilution method. The data set is classed as cell-based. The conditions noted are these: HI-agar, 37° C., 20 hours, 10^8 viable cells per ml. As to the method: (§1) (A) Minimal inhibitory concentration 1 Test Method In vitro antibacterial activity was determined by the two-fold agar-plate dilution method as described below. One loopful of an overnight culture of each test strain in Trypticase-soy broth (10^8 viable cells per ml) was streaked on heart infusion agar (HI-agar) containing graded concentrations of representative test compound, and the minimal inhibitory concentration (MIC) was expressed in tems of μg/ml after incubation at 37° C. for 20 hours.

Another data set has as its system Proteus mirabilis 18. The data set is described as above. The data set is classed as cell-based. The conditions noted are these: HI-agar, 37° C., 20 hours, 10^8 viable cells per ml. How it is done:
as §1

Data set [1] in a line: Urinary excretion in rats after oral administration. The conditions noted are these: rat, oral 100 mg/kg, urine 0 to 6 and 6 to 24 hours, bioassay, read-out: Urinary recovery in 24 hours (%). Type of data set: in vivo.
Experimental: Urine of rats was collected with a urine collector at 0 to 6, and 6 to 24 hours after oral administration of 100 mg/kg of the test antibiotic. The antibiotic levels in the urine samples were bioassayed with the standard solution prepared with M/15 phosphate buffer (pH 7.0) and the urinary recovery in 24 hours was calculated.
The nature of a further data set: in vivo. To be noted: rat, po, 100 mg/kg.

Values after ≈ are worked out from the molar mass of the structure shown.

Experimental for in vivo: Rats anesthetized with pentobarbital were fixed in supine position, and a polyethylene cannula was inserted into the bile duct. Bile samples were collected at 0 to 3, 3 to 6, and 6 to 24 hours after oral administration of 100 mg/kg of the test antibiotic. The antibiotic levels in the bile samples were bioassayed with the standard solutions prepared with M/15 phosphate buffer (pH 7.0) and the biliary recovery in 24 hours were calculated.

In general, MIC refers to the lowest concentration that inhibits growth of the organism. Read a high MIC as weaker potency. Consider `[N-]=[N+]=NCC1=C(C(=O)O)N2C(=O)C(NC(=O)/C(=N\OCC(=O)O)c3nsc(N)n3)C2SC1` (stereo not drawn) [Test Compound (1), 7-[2-Carboxymethoxyimino-2-(5-amino-1,2,4-thiadiazol-3-yl)acetamido]-3-azidomethyl-3-cephem-4-carboxylic acid (syn isomer)], for which the results for the MIC against Proteus vulgaris 2 and in the data set on Proteus mirabilis 18 were 0.1 mg/L (≈ 0.207 µM) and 0.05 mg/L (≈ 0.103 µM), respectively. The dose excreted at 24 h in data set [1] is 26.6%; in the data set “in vivo”, 4.72%.
